Assay results from patent US20150191445A1, “ACYL-HYDRAZONE AND OXADIAZOLE COMPOUNDS, PHARMACEUTICAL COMPOSITIONS CONTAINING THE SAME AND USES THEREOF” (Universidade Federal de Santa Catarina, priority 2011, published 2015).
Entries after “also recorded” stand apart in the source; their conditions may differ.

Experiments:
REH cells = assay: MTT cytotoxicity assay, REH cell line; type: cell-based, human; settings: 48 h of treatment
Experimental: (§1) All compounds were resuspended in DMSO at stock concentration of 20 mM and stored at −20° C. For cytotoxicity testing, the dilutions from the stock solutions were made in culture medium (RPMI-1640 plus 10% of fetal bovine serum, 100 IU/ml penicillin and 100 µg/mL Streptomycin), immediately before being discharged to the cells.
(§2) The REH and Jurkat cell lines were maintained in
(§3) RPMI-1640 medium with 10% FBS (fetal bovine serum), 100 IU/mL penicillin, 100 µg/mL streptomycin and incubated at 37° C. and 5% CO2. Cytotoxicity assays were performed according to the method described in the literature (Pieters, R.; et al. In vitro drug sensitivity of cells from children with leukemia using the MTT assay with improved culture conditions. Blood, 1990, 76, 2327-2336; Pieters, R.; et al. Relation of cellular drug resistance to long-term clinical outcome in childhood acute lymphoblastic leukaemia. Lancet, 1991, 338, 399-403 e Kaspers, G. J.; et al. In vitro cellular drug resistance and prognosis in newly diagnosed childhood acute lymphoblastic leukemia. Blood, 1997, 90, 2723). Cells were resuspended at a concentration of 3.75 10^5 cells/mL in culture medium as described. Eighty microliters of this suspension were seeded into plates with 96 round-bottom wells, containing 20 microliters of different concentrations of compound or vehicle alone. Each treatment was done in triplicate. After 48 hours of incubation at 37° C. and 5% CO2, 20 μL of MTT solution was added (5 mg/mL of 1x PBS), followed by further incubation for 4 hours and 30 minutes at 37° C. and 5% CO2. During these 4 hours and 30 minutes, MTT (yellowish) is metabolized to formazan salt (bluish in color) by living cells. After this, 100 μL sodium dodecyl sulphate (SDS) 10%+0.1M of HCl were added to dissolve the formazan crystals. After incubating overnight, absorbance reading at 570 nm was carried out. The percentage of cells surviving the treatment were calculated relative to the number of surviving cells in the medium without addition of the compounds in question (“negative control”).
(§4) c) Determination of IC: IC50 is defined as the concentration of a compound at which 50% of maximal inhibition is obtained. After reading the absorbance, survival curves were constructed and the values of IC50 were obtained with the GraphPad Prism software.

Jurkat cells = assay: MTT cytotoxicity assay, Jurkat cell line; type: cell-based, human; settings: 48 h of treatment, read-out: IC50 T (Jurkat)
Experimental: as §1, §2, §3, §4

[1] = tested on: human leukemic Jurkat cells and HEK; assay: Screening of compounds by cell viability assay (MTT) in leukemic cells; type: cell-based; settings: leukemic cells of Jurkat and HEK strains
Experimental: RPMI-1640 medium with 10% FBS (fetal bovine serum), 100 IU/mL penicillin, 100 µg/mL streptomycin and incubated at 37° C. and 5% CO2. Cytotoxicity assays were performed according to the method described in the literature (Pieters, R.; et al. In vitro drug sensitivity of cells from children with leukemia using the MTT assay with improved culture conditions. Blood, 1990, 76, 2327-2336; Pieters, R.; et al. Relation of cellular drug resistance to long-term clinical outcome in childhood acute lymphoblastic leukaemia. Lancet, 1991, 338, 399-403 e Kaspers, G. J.; et al. In vitro cellular drug resistance and prognosis in newly diagnosed childhood acute lymphoblastic leukemia. Blood, 1997, 90, 2723). Cells were resuspended at a concentration of 3.75 10^5 cells/mL in culture medium as described. Eighty microliters of this suspension were seeded into plates with 96 round-bottom wells, containing 20 microliters of different concentrations of compound or vehicle alone. Each treatment was done in triplicate. […] After incubating overnight, absorbance reading at 570 nm was carried out. The percentage of cells surviving the treatment were calculated relative to the number of surviving cells in the medium without addition of the compounds in question (“negative control”). […]

[2] = biological target: Trypanosoma cruzi cruzain (Trypanosoma cruzi, UniProt P25779); settings: cited from earlier work
Chain of Trypanosoma cruzi cruzain (P25779 123-467): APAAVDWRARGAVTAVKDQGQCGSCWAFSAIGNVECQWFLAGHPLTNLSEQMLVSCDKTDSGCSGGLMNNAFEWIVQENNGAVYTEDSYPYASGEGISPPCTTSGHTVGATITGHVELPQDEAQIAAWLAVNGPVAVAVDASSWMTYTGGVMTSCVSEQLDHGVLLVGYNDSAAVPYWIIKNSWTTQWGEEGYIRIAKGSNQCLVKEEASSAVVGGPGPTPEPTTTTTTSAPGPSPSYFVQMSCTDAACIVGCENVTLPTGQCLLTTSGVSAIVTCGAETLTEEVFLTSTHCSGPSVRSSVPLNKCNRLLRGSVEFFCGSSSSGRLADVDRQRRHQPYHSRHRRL

[3] = tested on: healthy and phytohemagglutinin-stimulated lymphocytes; assay: MTT assay on normal lymphocytes stimulated with phytohemagglutinin; type: cell-based, human; settings: for Percentage of survival: 48 h, MTT
Experimental: for the test of compound 07 against normal lymphocytes, blood from human donors was separated in a ficoll gradient and the mononuclear cells were cultivated at 200,000 cells/well, in 80 microliters of RPMI-1640 (containing 10% FBS, 100 IU/mL penicillin and 100 μg/mL streptomycin) and 20 microliters of phytohemagglutinin solution (Cultilab) in each well for stimulation of T lymphocytes. Compound 07 was added in serial dilutions (50%) from 300 to 1 nm. As a control, parallel tests were run with cells from leukemic Jurkat and REH cell lines, and experiments with colchicine with the same concentrations as compound 07. Cytotoxicity was assessed after 48 hours by the MTT method, as described Above.

melting point	Compound	IC50 (REH cells)	IC50 (Jurkat cells)	further results
245 to 246 °C	COc1cccc(OC)c1/C=N/NC(=O)c1cc(OC)c(OC)c(OC)c1 [Compound 21]			
230 to 231 °C	COc1cc(C(=O)N/N=C/c2cnc[nH]2)cc(OC)c1OC [Compound 17]			
206 to 208 °C	COc1cc(C(=O)N/N=C/c2ccc(Br)cc2O)cc(OC)c1OC [Compound 26]			
203 to 204 °C	COc1cc(C(=O)N/N=C/c2ccc(Cl)c(C(F)(F)F)c2)cc(OC)c1OC [Compound 29]			
177 to 179 °C	COc1cc(C2OC(c3cc(OC)c(OC)c(OC)c3)=NN2C(C)=O)cc(Br)c1O (stereo not drawn) [Compound 36]			
247 to 248 °C	COc1cc(/C=N/NC(=O)c2cc(OC)c(OC)c(OC)c2)cc(I)c1O [Compound 05]			
170 to 172 °C	COc1cc(C2OC(c3cc(OC)c(OC)c(OC)c3)=NN2C(C)=O)ccc1O (stereo not drawn) [Compound 37]			

Continued, compound first:

Compound	melting point	IC50 (REH cells)	IC50 (Jurkat cells)	further results
COc1cc(C(=O)NN=Cc2ccc3c(c2)OCO3)cc(OC)c1OC [Compound 10]		206 nM	154 nM	
COc1cc(C(=O)NN=Cc2ccc(Br)cc2)cc(OC)c1OC [Compound 02]		33.7 nM	31.4 nM	antileukemic activity [1]: excellent antileukemic activity; also recorded: significant antileukemic activity; inhibitory activity of cruzain [2]: did not show inhibitory activity
COc1cc(C(=O)NN=Cc2ccc(C)cc2)cc(OC)c1OC [Compound 16]		70.6 nM	71.5 nM	
COc1cc(C(=O)NN=Cc2ccccc2Cl)cc(OC)c1OC [Compound 11]		459 nM	189 nM	
COc1cc(C2=NN(C(C)=O)C(c3cccc4ccccc34)O2)cc(OC)c1OC (stereo not drawn) [Compound 38]	189 to 192 °C			
Colchicine [reference compound]		9.5 nM	7.7 nM	Percentage of survival ([3]; 4.6 nM): 109%; Percentage of survival ([3]; 9.38 nM): 110%; Percentage of survival ([3]; 18.75 nM): 95%; Percentage of survival ([3]; 37.5 nM): 84%; Percentage of survival ([3]; 75 nM): 75%; Percentage of survival ([3]; 150 nM): 69%; toxicity relative to the control / inhibition on the viability of lymphocytes T ([3]; 300 nM): 37%; Percentage of survival ([3]; 300 nM): 63%
COc1cc(C(=O)NN=Cc2ccc(Cl)cc2)cc(OC)c1OC [Compound 09]		328 nM	203 nM	
